From patent US5457097A, “Androst-4-eno[4,5-b]pyrrole derivatives” (Farmitalia Carlo Erba S.r.l., priority 1992, dated 1995)

Molecular target: T1, human placental aromatase (Homo sapiens, UniProt P11511)
T1 construct: utilizes the human placental microsomal fraction as enzyme source; from tissue; host or cells: human placenta, microsomal fraction
T1 sequence (P11511 1-503): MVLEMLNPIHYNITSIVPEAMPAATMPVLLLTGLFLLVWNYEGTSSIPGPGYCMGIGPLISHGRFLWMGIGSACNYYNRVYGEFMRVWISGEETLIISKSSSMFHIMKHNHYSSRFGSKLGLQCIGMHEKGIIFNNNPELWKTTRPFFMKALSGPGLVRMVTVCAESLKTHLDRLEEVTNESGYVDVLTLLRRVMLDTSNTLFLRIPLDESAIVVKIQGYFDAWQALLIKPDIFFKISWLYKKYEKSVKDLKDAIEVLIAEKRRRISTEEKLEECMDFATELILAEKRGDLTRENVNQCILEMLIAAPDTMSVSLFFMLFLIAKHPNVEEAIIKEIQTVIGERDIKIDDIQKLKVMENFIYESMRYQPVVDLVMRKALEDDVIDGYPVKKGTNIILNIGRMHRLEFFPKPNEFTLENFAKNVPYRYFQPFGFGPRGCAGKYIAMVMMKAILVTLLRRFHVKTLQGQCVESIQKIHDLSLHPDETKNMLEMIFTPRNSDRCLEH
Test: in vitro aromatase inhibition test (Thompson and Siiteri), 3H2O release from [1β-3H]androstenedione
Type: biochemical
Settings: human placental microsomal fraction; [1β-3H]androstenedione 50 nM, NADPH, 15 min incubation at 37° C.; read-out: concentration producing 50% inhibition of human placental aromatase (IC50)
Method: The concentration of each compound required to reduce control aromatase activity by 50% (IC50) was determined by plotting % inhibition versus log of inhibitor concentration.

## C[C@]12C=CC(=O)c3[nH]cc(c31)C[C@@H]1[C@@H]2CC[C@]2(C)C(=O)CC[C@@H]12 [3,17-dioxo-1'H-androsta-1,4-dieno[4,5-b]pyrrole]
  IC50: 120 nM
